The values below come from ChEMBL document CHEMBL5247605, “Discovery of potent indazole-based human glutaminyl cyclase (QC) inhibitors as Anti-Alzheimer's disease agents” (Eur J Med Chem, 2022).

Active and inactive are the calls of the source. The rule behind the calls is not given here. A value given as a limit tells only on which side of the number the result lay.

One data set concerns the target hERG (KCNH2) (Homo sapiens, UniProt Q12809). The experiment in a line: Inhibition of hERG at 10 uM by fluorescence polarization assay relative to control. The format is toxicity. For orientation: Block of hERG is tested as a sign of cardiac risk.
A short description of data set [1]: Metabolic stability in mouse liver microsomes assessed as compound remaining after 30 mins. The class given is ADME, Microsome. The settings on record: read-out: Stability. A general note: Liver microsomes are a subcellular fraction often used to study metabolism.
A short description of data set [2]: Cytotoxicity against mouse HT-22 cells assessed as cell viability at 10 uM incubated for 18 hrs by MTT assay relative to control. The class given is toxicity, cell-based. The conditions noted are these: read-out: Activity. Background: Tetrazolium assays rely on reduction of a dye to a coloured formazan, in cell work by metabolically active cells.
For data set [3], the target named is Glutaminyl-peptide cyclotransferase (Mus musculus, UniProt Q9CYK2). The experiment in a line: Inhibition of mouse glutaminyl cyclase.
Glutaminyl-peptide cyclotransferase, sequence (Q9CYK2 whole entry, the tested form may be a part): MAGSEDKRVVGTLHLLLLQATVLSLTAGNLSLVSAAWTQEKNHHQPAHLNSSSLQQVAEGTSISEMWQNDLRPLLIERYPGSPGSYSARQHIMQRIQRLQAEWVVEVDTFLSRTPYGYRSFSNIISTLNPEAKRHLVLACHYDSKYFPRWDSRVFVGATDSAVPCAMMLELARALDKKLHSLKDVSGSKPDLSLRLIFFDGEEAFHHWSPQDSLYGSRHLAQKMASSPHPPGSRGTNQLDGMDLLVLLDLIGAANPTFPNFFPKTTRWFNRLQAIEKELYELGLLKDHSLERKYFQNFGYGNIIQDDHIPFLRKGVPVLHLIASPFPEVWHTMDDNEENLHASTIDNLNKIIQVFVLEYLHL
For data set [4], the system named is Mus musculus. The experiment in a line: Antialzheimer activity in human amyloid beta (3 to 40 residues) induced ICR mouse model assessed as inhibition of pyroglutamate form of amyloid-beta formation in brain at 10 mM, icv by sandwich ELISA relative to control. The class given is functional.
A short description of data set [5]: Metabolic stability in human liver microsomes assessed as compound remaining after 30 mins. The settings on record: read-out: Stability. The format is ADME, Microsome.
In data set [6] the target is Voltage-gated inwardly rectifying potassium channel KCNH2 (Homo sapiens, UniProt Q12809). The experiment in a line: Inhibition of hERG by fluorescence polarization assay. The class given is toxicity.
Voltage-gated inwardly rectifying potassium channel KCNH2, sequence (Q12809 whole entry): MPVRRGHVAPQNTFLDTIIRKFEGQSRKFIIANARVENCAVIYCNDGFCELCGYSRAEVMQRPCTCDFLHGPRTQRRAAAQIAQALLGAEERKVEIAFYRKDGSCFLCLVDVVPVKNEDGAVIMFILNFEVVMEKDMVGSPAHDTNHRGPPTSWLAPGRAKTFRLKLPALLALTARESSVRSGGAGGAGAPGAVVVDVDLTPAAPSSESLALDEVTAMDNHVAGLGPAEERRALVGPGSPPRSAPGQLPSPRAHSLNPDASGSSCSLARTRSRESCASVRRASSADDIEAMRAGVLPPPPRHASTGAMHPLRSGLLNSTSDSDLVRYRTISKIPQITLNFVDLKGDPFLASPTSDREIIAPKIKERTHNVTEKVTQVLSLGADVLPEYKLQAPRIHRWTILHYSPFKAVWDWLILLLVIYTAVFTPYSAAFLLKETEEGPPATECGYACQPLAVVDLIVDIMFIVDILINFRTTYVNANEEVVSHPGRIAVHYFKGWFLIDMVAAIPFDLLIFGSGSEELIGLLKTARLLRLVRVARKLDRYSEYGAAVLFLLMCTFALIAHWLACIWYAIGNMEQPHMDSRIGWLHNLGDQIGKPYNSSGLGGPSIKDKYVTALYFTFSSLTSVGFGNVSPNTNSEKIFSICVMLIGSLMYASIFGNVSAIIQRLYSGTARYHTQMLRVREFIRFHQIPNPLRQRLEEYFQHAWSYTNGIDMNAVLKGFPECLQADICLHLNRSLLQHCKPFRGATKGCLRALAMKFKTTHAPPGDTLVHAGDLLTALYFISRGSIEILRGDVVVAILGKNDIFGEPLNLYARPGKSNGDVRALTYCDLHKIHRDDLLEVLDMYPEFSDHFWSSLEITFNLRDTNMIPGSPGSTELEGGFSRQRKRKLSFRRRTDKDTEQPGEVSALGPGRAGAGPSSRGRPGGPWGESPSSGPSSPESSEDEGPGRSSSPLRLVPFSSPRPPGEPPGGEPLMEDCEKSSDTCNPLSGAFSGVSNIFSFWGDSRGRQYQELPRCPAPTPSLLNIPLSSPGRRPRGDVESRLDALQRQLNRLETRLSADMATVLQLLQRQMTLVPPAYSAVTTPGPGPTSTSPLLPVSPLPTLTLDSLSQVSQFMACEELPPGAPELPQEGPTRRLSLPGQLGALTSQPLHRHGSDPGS
The species entered for data set [7] is Mus musculus. The conditions noted are these: ICR, dose 10.0 mM, route icv.

For orientation: inhibition means the change of the read-out against control, counted positive when it falls. The term IC50 denotes the concentration that gives 50% inhibition. Read a low IC50 as greater potency.

hERG (KCNH2), sequence (Q12809 whole entry): as above

For the compound `Cc1n[nH]c2cc(N(Cc3ccc(F)cc3)C(=O)NCCCn3cncc3C)ccc12`, the inhibition at 10 µM on hERG (KCNH2) came to 61.9%. Besides, the figures for the remaining at 0.5 h in data set [1] and in data set [5] were 7.2% and 40.1%, respectively. For the same compound, the viability at 18 h, 10 µM in data set [2] stood at 92.1%. The 50% inhibitory concentration (IC50) in data set [3] is 0.0299 µM; in data set [6] it was above 10 µM. The “inhibition (INH)” value in the data set on Mus musculus [4] turned out to be 38.4%.

Turning to `Cc1nn(C)c2cc(N(C(=O)NCCCn3cncc3C)C3CCCCC3)ccc12`, the inhibition result in the data set filed under Mus musculus [7] was “inactive”. For the same compound, the inhibition at 10 µM against hERG (KCNH2) was 52.2%. In addition, the viability at 18 h, 10 µM in data set [2] was 102%.

In the case of `Cc1nn(CCCCc2ccnc(N)c2)c2ccc(NC(=O)NCCCn3cncc3C)cc12`, at hERG (KCNH2), the inhibition at 10 µM was 50.3%. For the same compound, in data set [2], the viability at 18 h, 10 µM was 98.7%. Also, the “inhibition (INH)” value in the data set with Mus musculus [4] is reported as 7.7%.

For the compound `Cc1nn(C)c2ccc(NC(=O)NCCCn3cncc3C)cc12`, in the data set filed under Mus musculus [7], the inhibition result is “inactive”. Also, on hERG (KCNH2), the inhibition at 10 µM came to 54.4%. Also, in data set [2], the viability at 18 h, 10 µM is 104%.

Consider `CCCOc1ccc([C@@H]2CNC(=O)N2c2ccc3nc[nH]c3c2)cc1`, for which the “inhibition (INH)” value in the data set on Mus musculus [4] came out at 17.1%.

Compound `Cc1n[nH]c2cc(N(CC3CCCC3)C(=O)NCCCn3cncc3C)ccc12` yielded an inhibition at 10 µM on hERG (KCNH2) of 80.8%. The remaining at 0.5 h in data set [1] is 11.8%; in data set [5], 37%. Further, the viability at 18 h, 10 µM in data set [2] was 96.9%. For the same compound, the IC50 in data set [3] is 0.0182 µM; in data set [6] it was above 10 µM. In the data set on Mus musculus [4], the “inhibition (INH)” value is listed as 25.5%.

Consider `Cc1nn(C)c2ccc(N(Cc3cccnc3)C(=O)NCCCn3cncc3C)cc12`, for which the inhibition entry in the data set listed under Mus musculus [7] was “inactive”. Also, at hERG (KCNH2), the inhibition at 10 µM came out at 44.1%. Besides, the viability at 18 h, 10 µM in data set [2] stood at 98.3%. For the same compound, the IC50 in data set [6] is below 10 µM.

For `Cc1nn(C)c2ccc(N(CC3CCCC3)C(=O)NCCCn3cncc3C)cc12`, the inhibition result in the data set filed under Mus musculus [7] was “inactive”. Moreover, the inhibition at 10 µM against hERG (KCNH2) was found to be 81.5%. Also, in data set [2], the viability at 18 h, 10 µM came out at 104%. The same compound returned an IC50 in data set [6] above 10 µM.

At hERG (KCNH2), `Cc1n[nH]c2cc(N(C(=O)NCCCn3cncc3C)C3CCCCC3)ccc12` had an inhibition at 10 µM of 47.6%. For the same compound, the remaining at 0.5 h turned out to be 18.4% in data set [1] and 50.4% in data set [5]. The viability at 18 h, 10 µM in data set [2] was 100%. The results for the 50% inhibitory concentration (IC50) in data set [3] and in data set [6] were 0.0342 µM and below 10 µM, respectively. In the data set on Mus musculus [4], the “inhibition (INH)” value worked out at 25%.

Compound `Cc1cncn1CCCNC(=O)N(Cc1ccc(F)cc1)c1ccc2c(C)n(C)nc2c1` had an inhibition at 10 µM on hERG (KCNH2) of 52%. Further, in data set [2], the viability at 18 h, 10 µM stood at 91.3%. For the same compound, the “inhibition (INH)” value in the data set on Mus musculus [4] is 15%.

`Cc1n[nH]c2ccc(N(C(=O)NCCCn3cncc3C)C3CCCCC3)cc12`: on hERG (KCNH2), 10 µM produced 74.4% inhibition. Moreover, in data set [2], the viability at 18 h, 10 µM was 100%. In the data set on Mus musculus [4], the “inhibition (INH)” value is listed as 8%. Moreover, the concentration for half-maximal inhibition (IC50) in data set [6] is above 10 µM.

Consider `Cc1n[nH]c2ccc(N(Cc3ccc(F)cc3)C(=O)NCCCn3cncc3C)cc12`, for which the inhibition entry in the data set filed under Mus musculus [7] is “inactive”. For the same compound, at hERG (KCNH2), the inhibition at 10 µM was found to be 80.6%. In addition, the viability at 18 h, 10 µM in data set [2] worked out at 97.2%. The compound also had an IC50 in data set [6] above 10 µM.

Turning to `Cc1nn(C)c2cc(N(CC3CCCC3)C(=O)NCCCn3cncc3C)ccc12`, in the data set filed under Mus musculus [7], the inhibition entry is “inactive”. The same compound gave an inhibition at 10 µM at hERG (KCNH2) of 70.3%. Further, the viability at 18 h, 10 µM in data set [2] is 107%. Moreover, the IC50 in data set [6] was above 10 µM.

Turning to `Cc1nn(C)c2cc(N(Cc3ccc(F)cc3)C(=O)NCCCn3cncc3C)ccc12`, the inhibition result in the data set filed under Mus musculus [7] was “inactive”. The compound also had an inhibition at 10 µM against hERG (KCNH2) of 56.5%. Also, in data set [2], the viability at 18 h, 10 µM stood at 102%.

`Cc1nn(C)c2ccc(N(Cc3ccc(F)cc3)C(=O)NCCCn3cncc3C)cc12` gave an inhibition at 10 µM against hERG (KCNH2) of 63.6%. Moreover, the viability at 18 h, 10 µM in data set [2] stood at 108%. Besides, in the data set on Mus musculus [4], the “inhibition (INH)” value turned out to be 7%. The IC50 in data set [6] was above 10 µM.

`Cc1nn(C)c2ccc(N(C(=O)NCCCn3cncc3C)C3CCCCC3)cc12`: the inhibition result in the data set filed under Mus musculus [7] was “inactive”. At hERG (KCNH2), this compound gave an inhibition at 10 µM of 58.1%. Besides, in data set [2], the viability at 18 h, 10 µM is 99.1%. Further, in data set [6], the IC50 was above 10 µM.
